Here are results for two molecules from patent EP0564397A1, “Antiatherosclerotic substituted phenylquinazoline derivatives” (SANDOZ LTD., priority 1992, dated 1993).

Holding throughout (conditions): duration of treatment 8 days
Assay [1] relates to total triglycerides. As to the kind of experiment: Test A: In vivo HDL-cholesterol test, blood serum samples assayed for total triglycerides content. From the text:
(§1) a) Test A: In vivo HDL-cholesterol test: The test is effected according to the method described in the literature, e.g. in EP 528 146 Other conventional methods may be used to assay the blood serum samples for HDL-cholesterol and total triglycerides content.

Assay [2] relates to HDL-cholesterol. As to the kind of experiment: Test A: In vivo HDL-cholesterol test.
Text: as §1

Assay [3] concerns Apo A-I. As to the kind of experiment: Test B: Apo A-I test. Type of assay: in vivo. From the text:
b) Test B: Apo A-I test: The test is effected as described in the literature, e.g. in EP 528 146.

As to `CC1=CSC2=Nc3ccccc3[C@@H](c3ccccc3)N12` [Example 1, R-isomer (free base), (R)-3-Methyl-5-phenyl-5H-thiazolo[2,3-b]quinazoline], the “Total triglyceride level decrease (%)” value in assay [1] (average dose 83 mg/kg/day) is on record as 15%. Further, in assay [2] (average dose 83 mg/kg/day), the “HDL-cholesterol level increase (%)” value is reported as 402%. Besides, the “Apo-I level increase (%)” value in assay [3] (average dose 83 mg/kg/day) is recorded as 62%.

`Cc1ccc(C)c(OCCCC(C)(C)C(=O)O)c1` [Gemfibrozil]: in assay [1] (average dose 53 mg/kg/day), the “Total triglyceride level decrease (%)” value stood at 15%. Further, in assay [2] (average dose 53 mg/kg/day), the “HDL-cholesterol level increase (%)” value was 211%. For the same molecule, the “Apo-I level increase (%)” value in assay [3] (average dose 53 mg/kg/day) is recorded as 88%.
